{
  "source": "paper PMC9457533",
  "about": "“Study on Metronidazole Acid-Base Behavior and Speciation with Ca^2+ for Potential Applications in Natural Waters” (Molecules, 2022)",
  "key": {"[1]": {"parameters": "method as in PMID 33975173", "conditions": "t = 25 °C, I = 0.1 mol L^-1 in NaClO4, spectrophotometry; cited from earlier work"}, "[2]": {"experiment": "Dependence of protonation constants on temperature (van't Hoff equation), thermodynamic parameters", "type": "physicochemical", "conditions": "t = 298.15 K, I = 0.15 mol L^-1 NaCl", "description": "The protonation and formation constants values acquired at the three different temperatures of 15, 25, and 37 °C, listed in Table 1, were used to study their dependence on temperature, as already shown for several systems. The data obtained by the potentiometric measurements were analyzed using the following van’t Hoff equation:logβT = logβθ + ΔH^0(1/θ − 1/T) R ln 10(6) where logβT is the stability constant at a certain temperature (expressed in kelvin), while logβθ is the stability constant at t = 298.15 K, and R is the universal gas constant expressed as 8.314 J K^−1 mol^−1. Using the equation just reported, it was possible to calculate the protonation and formation enthalpies change values, together with Gibbs free energy and entropy changes.\n(§1) The protonation constant of MNZ (L), formation constant values of Ca^2+(M)-MNZ (L), and titration parameters (analytical concentration of the reagents, standard potential E^0, junction potential) were determined by using BSTAC and STACO programs. LIANA program has provided the parameters characterizing the dependence of the protonation and formation constant values on the temperature and ionic strength. More details on software are present in ref. [59]. ^1H NMR data were processed by HypNMR software, which allows for calculating protonation and formation constant values and the individual chemical shift of species through the observed signals and assuming fast mutual exchange in the NMR time scale. UV-Vis data are processed by the HypSpec program, which allows refining of the protonation and formation constant as well as the molar absorption coefficient values (ε) of the species. The speciation diagrams and the formation percentage of the species are determined by the Hyss program."}, "[3]": {"experiment": "Dependence of protonation constants on ionic strength (Debye-Hückel type equation)", "type": "physicochemical", "conditions": "t = 25 °C, NaCl; for log^Tβ (constant at infinite dilution): extrapolated to I = 0 mol L^-1", "text": "The choice to carry out the experiments at various ionic strengths made it possible to study the dependence of the values of the protonation and formation constants on the ionic strength, expressed by a Debye-Hückel type equation, reported below: (5) logβ=logβ^T − 0.51 z* I/1 + 1.5 I + CI where β^T is the protonation constant at infinite dilution, z* is the parameter that refers to the charges present in the solution corresponding to ∑z^2reagents − ∑z^2products, and C refers to the empirical parameter that depends on the stoichiometric coefficients and on the charges. Using Equation (5) and equilibrium constants at various ionic strength values, the formation constants extrapolated to I = 0 mol L^−1, together with the empirical parameter C, were obtained.\nas §1"}, "[4]": {"experiment": "Potentiometric titrations: protonation constants of MNZ in NaCl", "type": "physicochemical", "conditions": "for logβ^H2L: 2H + L = H2L; for logβ^HL: H + L = HL; for logβ average value: I = 0.15 mol L^-1, average of 1H-NMR, UV; for logK^H2L: LH + H = H2L", "text": "The knowledge of the protonation constants of a ligand is crucial to defining the ionization state which influences several characteristics, such as aqueous solubility, and complexation ability. The equilibrium reactions associated with the protonation constant values are the following, where the charges are omitted for simplicity and MNZ was indicated as L: iH + L = HiL β^H^iL(1) H + Hi−1L = HiL K^H^iL(2)\nThe potentiometric titrations were employed by Metrohm-Titrando 809 automated potentiometer with a combined glass electrode ORION, type Ross 8102SC and a Metrohm Dosino 800 automatic dispenser. The titrations were performed in cells with a capacity of 25 mL, characterized by a double wall inside which thermostated water circulates. The cells were connected to a thermostat model D1-G Haake. During the measurements, pure N2 was bubbled to avoid CO2 and O2 in solution. The system is interfaced to a PC through the Metrohm TIAMO 2.0 software, which automatically acquires the mL/mV pairs. It can control several parameters, such as e.m.f. stability, titrant delivery, and data acquisition. Estimated accuracy of this apparatus is ±0.15 mV and ±0.002 mL for e.m.f. and for readings of titrant volume. The acid-base titrations were carried out first on 25 mL solutions containing L, HCl, and NaCl as supporting electrolytes at different temperatures and ionic strength conditions. Various potentiometric titrations are performed on 25 mL containing Ca^2+-L in different ratios, in NaCl at t = 15, 25, and 37 °C and I = 0.15, 0.5 and […]. The solutions were titrated using standard NaOH solution. A calibration was associated with each measurement by titration with NaOH of a solution containing HCl, NaCl, and H2O, in order to calculate the standard electrode potential (E^0) and the pKw values.\nas §1"}, "[5]": {"experiment": "Speciation simulation of MNZ under sea water conditions", "conditions": "pH = 8.1, I = 0.7 mol L^-1, t = 25 °C", "description": "In order to assess the relevance of the Ca^2+ complex in sea water conditions, the average concentrations of MNZ (L), Ca^2+, Mg^2+, and other divalent cations such as Cu^2+ and Zn^2+, were considered. With the use of the thermodynamic data here determined, it is possible to carry out simulations in sea water conditions. More in detail, the protonation constants of L and the stability constants of Ca^2+-L complex species were calculated by data in Table 3 at I = 0.7 mol L^−1, i.e., the mean ionic strength of sea water. For Cu^2+-L and Zn^2+-L complexes, data of formation constants determined by us and not yet published were used. […] Formation constant values of Cu^2+- and Zn^2+-L species under sea water conditions, belonging to our unpublished study, are summarized in the Supplementary Materials.\nas §1"}, "[6]": {"conditions": "t = 15 °C, I = 0.15 mol L^-1 NaCl"}, "[7]": {"conditions": "t = 15 °C, I = 0.5 mol L^-1 NaCl"}, "[8]": {"conditions": "t = 15 °C, I = 0.97 mol L^-1 NaCl"}, "[9]": {"conditions": "t = 25 °C, I = 0.5 mol L^-1 NaCl"}, "[10]": {"conditions": "t = 25 °C, I = 0.96 mol L^-1 NaCl"}, "[11]": {"conditions": "t = 37 °C, I = 0.14 mol L^-1 NaCl"}, "[12]": {"conditions": "t = 37 °C, I = 0.5 mol L^-1 NaCl"}, "[13]": {"conditions": "t = 37 °C, I = 0.96 mol L^-1 NaCl"}, "[14]": {"conditions": "CL = 8·10^-10 mol L^-1, CZn = 1.5·10^-9 mol L^-1"}},
  "note": "“And” between values parts separate entries of the source, which are not always exact repeats. Identical values can stand only once.",
  "data": [
    {"smiles": "Cc1ncc([N+](=O)[O-])n1CCO", "note": "[MNZ, 2-Methyl-5-nitroimidazole-1-ethanol]", "values": [
      {"measurement": "logK2 (protonation constant)", "setting": "[1]", "value": 2.15},
      {"measurement": "TΔS", "setting": "[2]; L + H = LH", "value": 14.1, "unit": "kcal/mol"},
      {"measurement": "ΔG", "setting": "[2]; L + H = LH", "value": -15.9, "unit": "kcal/mol"},
      {"measurement": "ΔH", "setting": "[2]; L + H = LH", "value": "-8 kJ mol^-1 and −8(7) kJ mol^-1"},
      {"measurement": "TΔS", "setting": "[2]; LH + H = LH2", "value": 0.24, "unit": "kcal/mol"},
      {"measurement": "ΔG", "setting": "[2]; LH + H = LH2", "value": -3.35, "unit": "kcal/mol"},
      {"measurement": "ΔH", "setting": "[2]; LH + H = LH2", "value": "-13 kJ mol^-1 and −13(3) kJ mol^-1"},
      {"measurement": "C (empirical parameter for dependence on ionic strength, Equation (5))", "setting": "[3]; L + 2H = LH2", "value": "1.16(6)"},
      {"measurement": "log^Tβ (constant at infinite dilution)", "setting": "[3]; L + 2H = LH2", "value": "14.4(1)"},
      {"measurement": "C (empirical parameter for dependence on ionic strength, Equation (5))", "setting": "[3]; L + H = LH", "value": "0.7(2) ^1"},
      {"measurement": "log^Tβ (constant at infinite dilution)", "setting": "[3]; L + H = LH", "value": "12.0(3) ^1"},
      {"measurement": "logβ^H2L", "setting": "[4]; [6]", "value": "14.559(5) ^4"},
      {"measurement": "logβ^H2L", "setting": "[4]; [7]", "value": "14.833(4)"},
      {"measurement": "logβ^H2L", "setting": "[4]; [8]", "value": "14.877(7)"},
      {"measurement": "logβ^H2L", "setting": "[4]; t = 25 °C, I = 0.15 mol L^-1 NaCl, potentiometry", "value": "14.130(4)"},
      {"measurement": "logβ^H2L", "setting": "[4]; [9]", "value": "15.18(4)"},
      {"measurement": "logβ^H2L", "setting": "[4]; [10]", "value": "15.05(6)"},
      {"measurement": "logβ^H2L", "setting": "[4]; [11]", "value": "14.27(8)"},
      {"measurement": "logβ^H2L", "setting": "[4]; [12]", "value": "14.75(8)"},
      {"measurement": "logβ^H2L", "setting": "[4]; [13]", "value": "14.601(8)"},
      {"measurement": "logβ^HL", "setting": "[4]; [6]", "value": "12.00(1) ^4"},
      {"measurement": "logβ^HL", "setting": "[4]; [7]", "value": "12.180(8)"},
      {"measurement": "logβ^HL", "setting": "[4]; [8]", "value": "12.12(1)"},
      {"measurement": "logβ^HL", "setting": "[4]; [9]", "value": "12.51(4)"},
      {"measurement": "logβ^HL", "setting": "[4]; [10]", "value": "12.22(6)"},
      {"measurement": "logβ^HL", "setting": "[4]; [11]", "value": "11.88(7)"},
      {"measurement": "logβ^HL", "setting": "[4]; [12]", "value": "12.14(8)"},
      {"measurement": "logβ^HL", "setting": "[4]; [13]", "value": "12.000(6)"},
      {"measurement": "logβ average value", "setting": "[4]; L + 2H = LH2, t = 25 °C, potentiometry", "value": "14.15(6)"},
      {"measurement": "logβ average value", "setting": "[4]; L + H = LH, t = 25 °C, potentiometry", "value": "11.74(2) ^1"},
      {"measurement": "logK^H2L", "setting": "[4]; [6]", "value": 2.56},
      {"measurement": "logK^H2L", "setting": "[4]; [7]", "value": 2.653},
      {"measurement": "logK^H2L", "setting": "[4]; [8]", "value": 2.76},
      {"measurement": "logK^H2L", "setting": "[4]; t = 25 °C, I = 0.15 mol L^-1 NaCl", "value": 2.46},
      {"measurement": "logK^H2L", "setting": "[4]; [9]", "value": 2.67},
      {"measurement": "logK^H2L", "setting": "[4]; [10]", "value": 2.83},
      {"measurement": "logK^H2L", "setting": "[4]; [11]", "value": 2.39},
      {"measurement": "logK^H2L", "setting": "[4]; [12]", "value": 2.61},
      {"measurement": "logK^H2L", "setting": "[4]; [13]", "value": 2.601},
      {"measurement": "percentage of LH species", "setting": "[5]; CL = 8·10^-10 mol L^-1", "value": 22, "unit": "%"},
      {"measurement": "percentage of CaLH species", "setting": "[5]; CL = 8·10^-10 mol L^-1, CCa = 0.01 mol L^-1", "value": 29, "unit": "%"},
      {"measurement": "percentage of CuL species", "setting": "[5]; CL = 8·10^-10 mol L^-1, CCu = 4·10^-5 mol L^-1", "value": 10, "unit": "%"},
      {"measurement": "percentage of ZnL species", "setting": "[5]; [14]", "value": 4, "unit": "%"},
      {"measurement": "percentage of ZnLOH species", "setting": "[5]; [14]", "value": 35, "unit": "%"}
    ]}
  ]
}
